The source made the active and inactive calls. The calls are words filed in the database; no cut-off is given here.

Our source for the Activity and pKb values is ChEMBL document CHEMBL1153039, “Allosteric modulators of the adenosine A1 receptor: synthesis and pharmacological evaluation of 4-substituted 2-amino-3-benzoylthiophenes” (J Med Chem, 2009).

Assay [1] deals with T1, Adenosine receptor A1 (Homo sapiens) (UniProt P30542).
T1 sequence (whole entry): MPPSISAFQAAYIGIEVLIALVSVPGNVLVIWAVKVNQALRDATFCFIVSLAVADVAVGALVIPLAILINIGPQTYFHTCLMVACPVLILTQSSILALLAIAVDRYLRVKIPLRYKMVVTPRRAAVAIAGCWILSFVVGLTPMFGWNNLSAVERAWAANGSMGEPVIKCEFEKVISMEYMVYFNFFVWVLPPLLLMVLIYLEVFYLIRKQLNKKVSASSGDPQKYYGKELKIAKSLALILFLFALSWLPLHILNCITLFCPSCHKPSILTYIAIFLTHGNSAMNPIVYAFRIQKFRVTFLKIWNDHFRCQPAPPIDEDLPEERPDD
The experiment in a line: Allosteric modulation of human adenosine A1 receptor transfected in CHO FlpIn cells assessed as orthosteric agonist R-PIA-mediated ERK1/2 phosphorylation at 3 uM pretreated 30 mins before R-PIA challenge measured after 1.5 hrs by fluorescence assay. The assay is classed as functional, cell-based.

For assay [2], the target named is T1, Adenosine receptor A1 (Homo sapiens). The experiment in a line: Allosteric modulation of human adenosine A1 receptor transfected in CHO FlpIn cells assessed as orthosteric agonist R-PIA-mediated ERK1/2 phosphorylation at 10 uM pretreated 30 mins before R-PIA challenge measured after 1.5 hrs by fluorescence assay. The assay is classed as functional, cell-based.

The target is the same in assay [3]. The experiment in a line: Binding affinity to allosteric site of unoccupied human adenosine A1 receptor transfected in CHO FlpIn cells assessed as potentiation of orthosteric agonist R-PIA-mediated ERK1/2 phosphorylation pretreated 30 mins before R-PIA challenge measured after 1.5 hrs by fluorescence assay. The assay is classed as cell-based.
Assay [4] has the same target. Kind of assay: Binding affinity to allosteric site of unoccupied human adenosine A1 receptor transfected in CHO FlpIn cells as potentiation of orthosteric agonist R-PIA-mediated [35S]GTPgammaS binding after 60 mins by liquid scintillation counting. The assay is classed as functional, cell-based.
The target is the same in assay [5]. The experiment in a line: Allosteric modulation of human adenosine A1 receptor transfected in CHO FlpIn cells assessed as orthosteric agonist R-PIA-mediated ERK1/2 phosphorylation at 0.1 to 3 uM pretreated 30 mins before R-PIA challenge measured after 1.5 hrs by fluorescence assay. The assay is classed as functional, cell-based.
The target is the same in assay [6]. The experiment in a line: […] at human adenosine A1 receptor transfected in CHO FlpIn cells assessed as potentiation of orthosteric agonist R-PIA-mediated [35S]GTPgammaS binding at 0.1 to 3 uM after 60 mins by liquid scintillation counting. The assay is classed as functional, cell-based. A general note: GTPγS resists hydrolysis and so accumulates on activated G proteins.

As for `Nc1scc(-c2ccc(I)cc2)c1C(=O)c1ccccc1`, the Activity in assay [1] was 51%; in assay [2] it was 50%.
Turning to `Nc1scc(-c2cccc(F)c2)c1C(=O)c1ccc(Cl)cc1`, the Activity in assay [1] turned out to be 76%; in assay [2], 90%.
The like results for `Nc1scc(-c2cccc(Br)c2)c1C(=O)c1ccccc1` were, in that order, 67% and 76%.
For `Nc1scc(-c2ccc(Br)cc2)c1C(=O)c1ccc(Cl)cc1`, the Activity is 45% in assay [1] and 46% in assay [2].
For the compound `Nc1scc(-c2ccc(Br)cc2)c1C(=O)c1ccccc1`, the Activity in assay [1] came to 46%; in assay [2], 49%.
On to `Nc1scc(-c2ccc([N+](=O)[O-])cc2)c1C(=O)c1ccccc1`, for which the Activity in assay [1] came out at 50%; in assay [2], 47%.
Turning to `Nc1scc(-c2ccc([N+](=O)[O-])cc2)c1C(=O)c1ccc(Cl)cc1`, the values for the Activity in assay [1] and in assay [2] were 47% and 52%, respectively.
As to `COc1cccc(-c2csc(N)c2C(=O)c2ccccc2)c1`, the results for the Activity in assay [1] and in assay [2] were 41% and 34%, respectively.
Turning to `Nc1scc(-c2ccccc2F)c1C(=O)c1ccc(Cl)cc1`, the Activity in assay [1] was 70%; in assay [2], 87%.
Regarding `Nc1scc(-c2ccccc2)c1C(=O)c1ccc(Cl)cc1`, the figures for the Activity in assay [1] and in assay [2] were 51% and 64%, respectively.
The like results for `Nc1scc(-c2ccc3ccccc3c2)c1C(=O)c1ccccc1` were, in that order, 55% and 73%.
Regarding `Nc1scc(-c2cc(C(F)(F)F)cc(C(F)(F)F)c2)c1C(=O)c1ccccc1`, the pKb (in general, −log10 of the Kb, conventionally taken in molar units) was determined as 5.22 in assay [3] and 5.82 in assay [4]. In addition, the Activity in assay [1] turned out to be 83%; in assay [2] it was 93%. In addition, the result in assay [5] and in assay [6] was Active.
In the case of `Nc1scc(-c2cccc(F)c2)c1C(=O)c1ccccc1`, the Activity came out at 51% in assay [1] and 52% in assay [2].
On the same counts, the results for `COc1ccc(-c2csc(N)c2C(=O)c2ccccc2)cc1` are 52% and 52%.
Take `Nc1scc(-c2cccc([N+](=O)[O-])c2)c1C(=O)c1ccc(Cl)cc1`: the Activity in assay [1] came to 53%; in assay [2], 42%.
On the same counts, the results for `Nc1scc(-c2cccc(C(F)(F)F)c2)c1C(=O)c1ccc(Cl)cc1` are 64% and 73%.
Take `Nc1scc(-c2ccc(I)cc2)c1C(=O)c1ccc(Cl)cc1`: the Activity in assay [1] is 54%; in assay [2], 61%.
Regarding `Nc1scc(-c2ccc(Cl)cc2)c1C(=O)c1ccc(Cl)cc1`, the Activity in assay [1] and in assay [2] was 50% each time.
Turning to `Nc1scc(-c2cccc(Br)c2)c1C(=O)c1ccc(Cl)cc1`, the Activity in assay [1] came to 62%; in assay [2], 69%.
As to `Nc1scc(-c2cccc(C(F)(F)F)c2)c1C(=O)c1ccccc1`, the pKb in assay [3] was found to be 6.37; in assay [4] it was 5.96. For the same compound, the Activity in assay [1] came to 83%; in assay [2], 59%. In addition, the result in assay [5] and in assay [6] was Active.
As to `Nc1scc(-c2ccc(Cl)cc2)c1C(=O)c1ccccc1`, the Activity in assay [1] was 46%; in assay [2], 51%.
On the same counts, the results for `Nc1scc(-c2ccc(F)cc2)c1C(=O)c1ccc(Cl)cc1` are 62% and 61%.
On the same counts, the results for `Nc1scc(-c2ccccc2F)c1C(=O)c1ccccc1` are 55% and 68%.
The like results for `COc1ccc(-c2csc(N)c2C(=O)c2ccc(Cl)cc2)cc1` were, in that order, 51% and 55%.
Consider `Nc1scc(-c2ccc3ccccc3c2)c1C(=O)c1ccc(Cl)cc1`, for which the results for the Activity in assay [1] and in assay [2] were 54% and 67%, respectively.
Consider `Nc1scc(-c2cc(C(F)(F)F)cc(C(F)(F)F)c2)c1C(=O)c1ccc(Cl)cc1`, for which the Activity came to 69% in assay [1] and 74% in assay [2].
On the same counts, the results for `Nc1scc(-c2cccc(Cl)c2)c1C(=O)c1ccccc1` are 45% and 52%.
In the case of `COc1cccc(-c2csc(N)c2C(=O)c2ccc(Cl)cc2)c1`, the Activity in assay [1] worked out at 58%; in assay [2] it was 60%.
On the same counts, the results for `Nc1scc(-c2ccc(F)cc2)c1C(=O)c1ccccc1` are 51% and 60%.
Turning to `Nc1scc(-c2cccc([N+](=O)[O-])c2)c1C(=O)c1ccccc1`, the results for the Activity in assay [1] and in assay [2] were 47% and 50%, respectively.
The like results for `Nc1scc(-c2cccc(Cl)c2)c1C(=O)c1ccc(Cl)cc1` were, in that order, 58% and 75%.
The like results for `Nc1scc(-c2ccccc2)c1C(=O)c1ccccc1` were, in that order, 49% and 48%.
